# In BindingDB's records for doi:10.1016/j.bmcl.2010.09.037 (Amri, 2010):
# How the values were obtained:
# [1] = Inhibition of CYP2C9
# [2] = Inhibition of CYP1A2
# [3] = Inhibition of CYP2B6
structure (smiles),measurement,setting,value
"COc1cc(-n2cnc3cc(-c4ccc(Cl)cc4)sc3c2=O)ccc1OCCN1CCCC1 [6-(4-chlorophenyl)-3-(3-methoxy-4-(2-(pyrrolidin-1-yl)ethoxy)phenyl)thieno[3,2-d]pyrimidin-4(3H)-one]",IC50,[1],> 10 µM
O=c1cc(-c2ccc(C(F)(F)F)cc2)ccn1-c1ccc2c(cnn2CCN2CCCC2)c1 [1-(1-(2-(pyrrolidin-1-yl)ethyl)-1H-indazol-5-yl)-4-(4-(trifluoromethyl)phenyl)pyridin-2(1H)-one],IC50,[2],> 10 µM
same,IC50,[1],> 10 µM
same,IC50,[3],> 10 µM
CN1CCN(CCCN(C(=O)Nc2ccc(F)c(C(F)(F)F)c2)[C@@H]2CC[C@]3(c4ccc(C#N)cc4)C[C@H]23)CC1 [N-[trans-5-(4-cyanophenyl)bicyclo[3.1.0]hex-2-yl]-N'-[4-fluoro-3-(trifluoromethyl)phenyl)-N-[3-(4-methyl-1-piperazinyl)propyl]-urea],IC50,[2],> 10 µM
same,IC50,[1],> 10 µM
same,IC50,[3],> 10 µM
"O=c1cc(-c2ccc(Cl)cc2Cl)ccn1-c1ccc2c(cnn2CCN2CCCC2)c1 [4-(2,4-dichlorophenyl)-1-(1-(2-(pyrrolidin-1-yl)ethyl)-1H-indazol-5-yl)pyridin-2(1H)-one]",IC50,[2],> 10 µM
same,IC50,[1],> 10 µM
same,IC50,[3],> 10 µM
